How the values were obtained:
ShHTL7 [1] = target: T1, ShHTL7 (Striga hermonthica, UniProt A0A0M3PNA2); assay: Hydrolysis assay with recombinant ShHTL7; format: biochemical; conditions: 10 μM substrate, 30°C, 60 min
T1 sequence (A0A0M3PNA2 1-271): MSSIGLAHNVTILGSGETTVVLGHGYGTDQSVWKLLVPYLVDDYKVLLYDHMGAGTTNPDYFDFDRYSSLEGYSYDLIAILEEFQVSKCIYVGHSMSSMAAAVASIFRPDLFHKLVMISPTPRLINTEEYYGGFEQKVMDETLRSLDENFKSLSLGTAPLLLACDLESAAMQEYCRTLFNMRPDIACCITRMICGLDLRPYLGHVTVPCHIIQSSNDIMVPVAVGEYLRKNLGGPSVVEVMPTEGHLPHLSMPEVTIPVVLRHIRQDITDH
Method: (§1) The ORF fragment of ShHTL6 and ShHTL7 was synthesized using IDT gBlock service. The PCR amplified ShHTL6 and ShHTL7 fragment was digested with Nco I and EcoR I, and the digested product was introduced into a modified pET28 vector with an N-terminal His8 tag. Escherichia coli BL21(DE3) was used for protein expression. The overnight culture (12 ml) was added to a fresh LB medium (1.2 L) containing kanamycin (50 mg/L) at 37°C. After OD600 reached 0.8, 0.1 mM IPTG was added and the cell was further incubated at 16°C for 21 h. The culture medium was centrifuged at 3700 g and the pellet was stored at −20°C until use. The pellet was resuspended and sonicated in a lysis buffer (50 mM Tris buffer (pH 8.0) containing 500 mM NaCl, 10 mM 2-mercaptoethanol, and 10% glycerol). The supernatant was purified by Ni Sepharose TM 6 Fast Flow (500 μl, Cytiva). After washing with the washing buffer (50 mM Tris buffer (pH 8.0) containing 500 mM NaCl and 20 mM imidazole), The bound protein was eluted with elution buffer (50 mM Tris buffer (pH 8.0) containing 500 mM NaCl and 200 mM imidazole). The eluate was concentrated using VIVASPIN Turbo 15 (Sartorius), and the concentration was adjusted to 5 mg/ml. The purified protein was aliquoted to the appropriate volume, immediately frozen in liquid nitrogen, and stored at −80°C until use.
Hydrolysis assays were carried out at 30°C for 60 min in 100 μl of a reaction buffer containing 0.13 pmol recombinant ShHTL7 or AtD14, 10 μM of substrate in 50 mM Phosphate-Na buffer (pH 7.0) containing 2% acetone. The enzyme reaction was stopped by addition of 100 μl of acetonitrile containing 1-naphtaleneacetic acid (NAA; 0.5 ng/μl) as an internal standard. After centrifuged at 13,000 rpm for 5 min, each sample was subjected to LC–MS/MS analysis equipped with reverse-phase column (CORTECS UPLC Phenyl 1.6 μm, ϕ2.1 × 75 mm; Waters). The concentration of remaining substrate and reaction product was calculated by using NAA as an internal standard. Detailed information about the analytical condition is described in Supplementary Table 1.

[2] = Time course monitoring of degradation in hydroponic culture; format: physicochemical; conditions: 1 μM, within 1 week, pH 5.7, LC-MS/MS
Method: t-CASL1, c-CASL1, PPASL, and GR5 were separately added to 15 ml tubes containing hydroponic culture. The final concentration of the test compounds is 1 μM and acetone was adjusted to 0.01% (v/v). These solutions were incubated under the same conditions as branching assay. After incubation for 0, 5, 24 72, or 168 h, 495 μl of hydroponic culture containing test compounds was collected and 5 μl of NAA solution (10 μM) was added as an internal standard. The solution was extracted with ethyl acetate. The ethyl acetate phase was dried up under the nitrogen gas and dissolved in acetonitrile. These samples were subjected to LC–MS/MS analysis equipped with reverse-phase column (CORTECS UPLC Phenyl 1.6 μm, ϕ2.1 × 75 mm; Waters). Each peak area of test chemicals and internal standard was calculated, and the remaining percentage of teste chemicals was calculated. At the same time, the degradation products of test compounds (CA or PPA) were also analyzed. Detailed information about the analytical condition was described in Supplementary Table 1.

ShHTL7 [3] = target: T1, ShHTL7; assay: YLG assay (inhibition of YLG hydrolysis) with recombinant ShHTL7; format: biochemical; conditions: 1 h incubation, read-out: IC50 in YLG assay
Method: as §1
After YLG was incubated with recombinant ShHTL6 or ShHTL7 for 1 h, the fluorescence was measured by spectraMax i5 (Molecular Devices) at excitation by 480 nm and detection by 520 nm. IC50 values were calculated using the online tool Quest GraphTM IC50 Calculator (AAT Bioquest, Inc., United States; https://www.aatbio.com/tools/ ic50-calculator).

Orobanche minor seeds = assay: Germination assay, Orobanche minor seeds; format: in vivo; conditions: O. minor seeds
Method: Orobanche minor seeds were washed with 70% EtOH, and then sonicated for 4 min in 1% sodium hypochlorite solution containing 0.2% Tween-20. The seeds were then washed 10 times with sterile water and suspended in 0.1% agar solution. The seeds were loaded onto 5-mm glass fiber filter disks (20–70 seeds/disk) and were conditioned at 23°C for 15 days. Each disk was transferred into a 96-well plate. A 30 μl aliquot of test chemical solution was added to the well. For the germination assay, the chemical solutions were prepared by 1,000 times dilution from each acetone stock solution with water (final acetone concentration was 0.1%). GR24 solution (0.1% acetone) and sterile water (0.1% acetone) was used as positive and negative control, respectively. The 96 well plates were incubated for 5 days at 23°C and the number of total seeds and germinated seeds was counted.

## CC1=CC(OC(=O)/C=C\c2ccccc2)OC1=O (stereo not shown) [c-CASL1]
ShHTL7 [1]
  hydrolysis by HTL7: can hydrolyze
[2]
  loss (non-enzymatic degradation) in hydroponic culture medium: ~40%
ShHTL7 [3]
  IC50: 0.59 µM
Orobanche minor seeds
  germination-inducing activity, times stronger than the corresponding trans isomer: approximately 10 times
